Laboratory results as given in patent US12173018B2, “Penicillin-binding protein inhibitors” (priority 2018, dated 2024).
Converted amounts (≈) assume the structure as drawn. Where two headings read alike, the source gives them in different places.

Assays:
E. coli PBP3 = E. coli PBP3 (Escherichia coli (strain K12), UniProt P0AD68); assay: E. coli PBP3 Bocillin-FL fluorescence polarization competition binding assay
In short: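 Polarization at 490/520 nm was monitored for 60 minutes in pH 8.0 Hepes buffer containing 300 mM NaCl and 5% glycerol, with compound spanning 0–1000 μM.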

E. coli PBP2 = E. coli PBP2 (Escherichia coli (strain K12), UniProt P0AD65); assay: E. coli PBP2 Bocillin-FL fluorescence polarization competition binding assay; settings: fluorescence polarization competition binding with Bocillin-FL; read-out: E. coli K12 PBP2 Potency (EC50)
Chain of E. coli PBP2 (P0AD65 whole entry): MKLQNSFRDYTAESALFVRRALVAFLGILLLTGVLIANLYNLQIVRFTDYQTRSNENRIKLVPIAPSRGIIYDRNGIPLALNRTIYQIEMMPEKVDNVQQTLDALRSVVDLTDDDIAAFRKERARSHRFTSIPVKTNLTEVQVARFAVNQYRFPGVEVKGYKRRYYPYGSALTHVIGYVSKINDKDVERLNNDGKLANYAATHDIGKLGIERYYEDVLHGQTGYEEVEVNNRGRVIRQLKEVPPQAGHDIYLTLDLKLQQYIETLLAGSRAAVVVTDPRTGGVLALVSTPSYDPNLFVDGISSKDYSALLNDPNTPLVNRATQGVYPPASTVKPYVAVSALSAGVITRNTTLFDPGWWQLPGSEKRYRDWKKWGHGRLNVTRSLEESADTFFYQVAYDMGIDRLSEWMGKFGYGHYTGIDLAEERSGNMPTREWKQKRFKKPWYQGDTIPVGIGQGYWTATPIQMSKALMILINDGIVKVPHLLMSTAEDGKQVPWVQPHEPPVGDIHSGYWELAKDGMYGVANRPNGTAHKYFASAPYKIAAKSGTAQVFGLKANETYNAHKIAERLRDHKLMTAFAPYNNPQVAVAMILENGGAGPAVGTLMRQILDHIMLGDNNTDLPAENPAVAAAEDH
From the text: To determine the ability of boronic acid-based test PBP inhibitors to bind Penicillin Binding Proteins (PBPs), Bocillin-FL (fluorescently-labeled penicillin V; ThermoFisher Scientific) was used in a fluorescence polarization (FP) competition binding assay to assess inhibitor binding to PBP2, PBP3 or PBP4 from Escherichia coli. PBPs were cloned and purified as described previously (King, D. T, et al., ACS Infectious Diseases 2015, 1, 175-184). To establish assay conditions for competition binding, an enzyme titration/saturation binding experiment was initially performed. Bocillin-FL was prepared at 0.2 μM in a buffer comprised of 50 mM Hepes (pH 8.0), 300 mM NaCl and 5% (v/v) glycerol. Saturation binding was performed by mixing 40 μl of PBP solutions ranging in concentrations from 0-12 μM with 40 μl of the 0.2 μM Bocillin-FL solution, in individual wells of a black 384-well microplate. FP was measured immediately upon mixing (Excitation, 490 nm; Emission, 520 nm; g-factor, 0.96), using a Cytation3 (BioTek) microplate reader and measured continuously for up to 120 minutes. […] For all PBPs the FP signal approached saturation with 1.5 μM PBP (final concentration). […] Assays (80 μl final volume) were performed with PBPs at a final concentration of 1.5 μM, Bocillin-FL at 0.1 μM and beta-lactam concentrations that ranged from 0-1000 μM. […] Bocillin-FL was added and the FP immediately measured for 60 minutes (90 minutes for PBP2). The beta-lactam potency was reported as the concentration of beta-lactam required to reduce binding of Bocillin-FL by […] (EC50). […] Binding assays for boronic acid PBP inhibitors were performed in an identical fashion.

E. coli PBP1a = E. coli PBP1a (Escherichia coli (strain K12), UniProt P02918); assay: Radioligand competition binding assay with 14C-labeled boronic acid probe, PBP1a
Chain of E. coli PBP1a (P02918 whole entry): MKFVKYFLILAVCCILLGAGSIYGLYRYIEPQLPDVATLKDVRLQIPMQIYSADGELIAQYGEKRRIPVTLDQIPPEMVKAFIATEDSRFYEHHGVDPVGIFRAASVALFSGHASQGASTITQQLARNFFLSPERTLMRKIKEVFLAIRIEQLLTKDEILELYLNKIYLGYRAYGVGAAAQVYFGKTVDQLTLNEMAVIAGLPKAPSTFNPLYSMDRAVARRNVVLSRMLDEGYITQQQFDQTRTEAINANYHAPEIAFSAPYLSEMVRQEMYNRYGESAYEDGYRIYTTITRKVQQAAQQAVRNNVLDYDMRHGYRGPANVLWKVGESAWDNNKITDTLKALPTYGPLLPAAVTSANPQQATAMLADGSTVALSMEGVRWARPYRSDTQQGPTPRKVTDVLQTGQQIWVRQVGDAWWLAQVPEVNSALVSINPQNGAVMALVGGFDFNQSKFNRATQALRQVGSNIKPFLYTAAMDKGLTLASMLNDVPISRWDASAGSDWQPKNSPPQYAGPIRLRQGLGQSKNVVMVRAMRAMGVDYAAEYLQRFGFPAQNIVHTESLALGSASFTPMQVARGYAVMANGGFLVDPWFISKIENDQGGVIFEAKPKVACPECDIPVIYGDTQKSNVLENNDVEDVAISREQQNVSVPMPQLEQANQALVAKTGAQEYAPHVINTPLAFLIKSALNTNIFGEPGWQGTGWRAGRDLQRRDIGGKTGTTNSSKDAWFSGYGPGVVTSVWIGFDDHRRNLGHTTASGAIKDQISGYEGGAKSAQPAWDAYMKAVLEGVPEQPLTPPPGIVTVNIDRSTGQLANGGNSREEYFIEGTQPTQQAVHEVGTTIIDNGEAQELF
From the text: To determine the ability of boronic acid-based test PBP inhibitors to bind Penicillin Binding Proteins (PBPs), a radio-labelled boronic acid PBP inhibitor
[drawing 751] was used in competition binding assays to determine boronic acid PBP inhibitor binding to PBP1a or PBP1b from Escherichia coli. PBP1a and PBP1b were purified as described previously (Bertsche, U.; et al., J. Biol. Chem. 2005, 280 (45), 38096-38101; Born, P.; et al., J. Biol. Chem. 2006. 281 (37), 26985-26993). To establish assay conditions for competition binding, an enzyme titration/saturation binding experiment was performed. Saturation binding was performed in a buffer comprised of 20 mM Tris (pH 7.5), 500 mM NaCl and 0.1% (v/v) TritonX-100, with PBP1a/PBP1b at a final concentration of 0.1 μM and Compound A at final concentrations ranging from 0-100 μM. Mixtures were incubated for 60 minutes, then applied to Zeba Spin Desalting columns or plates (ThermoFisher Scientific) and centrifuged at 1000-1500×g for 2 minutes. The flow through, containing PBP bound with Compound A, was recovered and 100 μL mixed with 5 mL of UltimaGold liquid scintillation cocktail (Perkin Elmer), and the radioactivity counted using a Beckman Coulter LS 6500 Multipurpose scintillation counter. PBP binding of Compound A approached saturation at 20 μM of ^14C-labeled probe. The competition binding assay was validated using the beta-lactam ampicillin, with Compound A at a final concentration of 20 μM, PBP1a/PBP1b at a final concentration of 0.1 μM. PBP1a/PBP1b was incubated with ampicillin in a 96-well microplate for 60 minutes, then Compound A was added and the mixtures incubated for an additional 60 minutes. The mixtures were then applied to Zeba Spin desalting plates and centrifuged at 1000×g for 2 minutes. The flow through was recovered and 100 μl mixed with 5 ml of UltimaGold liquid scintillation cocktail and the radioactivity counted. […] Binding assays with boronic acid PBP inhibitors were performed in an identical fashion. The potency of boronic acid PBP inhibitors was reported as the EC50 value.

[1] = test system: engineered strain of Escherichia coli harboring CTX-M15; assay: microbe, parasite or virus in culture; format: cell-based; settings: Escherichia coli, read-out: Microbiological Activity (MIC in mg/L), E. coli DH5α/pLBII-CTX-M15, engineered strain producing CTX-M15
[2] = test system: E. coli DH5α empty pLBII vector control strain; assay: microbe, parasite or virus in culture; format: cell-based, Escherichia coli; settings: Escherichia coli, read-out: Microbiological Activity (MIC in mg/L), E. coli DH5α/pLBII
In short: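 MIC was the lowest concentration visibly free of growth after 16–20 h at 37 °C, against 5×10^5 CFU/mL of the empty-pLBII DH5α control strain. Twofold compound dilutions were made in cation-adjusted Mueller-Hinton broth.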

E. coli ATCC 25922 = assay: Broth microdilution MIC, E. coli ATCC 25922; format: cell-based; settings: Escherichia coli
In short: (§1)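 Following CLSI guidance, growth inhibition is measured in Mueller-Hinton broth with divalent cations. Inoculum 5×10^5 CFU/mL; incubation 16-20 hours, 37° C; endpoint is visual absence of growth.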

E. coli AG100 = assay: Broth microdilution MIC, E. coli AG100 (wild-type parent); format: cell-based; settings: Escherichia coli; wild-type parent E. coli AG100, broth microdilution; read-out: MIC E. coli AG100
In short: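 Starting inoculum of 5×10^5 CFU/mL, from colonies grown 3-5 h in Mueller-Hinton broth with divalent cations, added to two-fold compound dilution series.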

E. coli 901C = assay: microbe, parasite or virus in culture; format: cell-based; settings: Escherichia coli; hyper-permeable E. coli 901C, broth microdilution; read-out: MIC E. coli 901C
In short: as §1

E. coli AG100A = assay: microbe, parasite or virus in culture; format: cell-based; settings: Escherichia coli, read-out: MIC E. coli AG100A
In short: as §1

E. coli D22 = assay: microbe, parasite or virus in culture; format: cell-based; settings: Escherichia coli; hyper-permeable E. coli D22, broth microdilution; read-out: MIC E. coli D22
In short: as §1

K. pneumoniae SI-117 = assay: microbe, parasite or virus in culture; format: cell-based; settings: Klebsiella pneumoniae, SI117, read-out: MIC K. pneumoniae SI-117
In short: as §1

K. pneumoniae UMM = assay: microbe, parasite or virus in culture; format: cell-based; settings: Klebsiella pneumoniae; K. pneumoniae UMM producing SHV-5 and KPC-2; read-out: MIC K. pneumoniae UMM
In short: as §1

[3] = test system: P. aeruginosa (ΔmexAB-oprM); assay: microbe, parasite or virus in culture; format: cell-based; settings: Pseudomonas aeruginosa, read-out: MIC P. aeruginosa ΔmexAB-OprM
In short: as §1

P. aeruginosa ATCC 35151 = assay: microbe, parasite or virus in culture; format: cell-based; settings: Pseudomonas aeruginosa, ATCC35151; hyper-permeable P. aeruginosa ATCC 35151; read-out: MIC P. aeruginosa ATCC 35151
In short: as §1

K. pneumoniae 848844 = assay: microbe, parasite or virus in culture; format: cell-based, Klebsiella pneumoniae; settings: Klebsiella pneumoniae; K. pneumoniae 848844 producing SHV-11 and KPC-2; read-out: MIC K. pneumoniae 848844
In short: as §1

P. aeruginosa ATCC 27853 = assay: Broth microdilution MIC, P. aeruginosa ATCC 27853; format: cell-based; settings: Pseudomonas aeruginosa
Protocol: To determine the ability of test compounds to potentiate the inhibition of the growth of bacterial strains, classic cell based broth microdilution minimum inhibitory concentration (MIC) assays were employed. MIC assays are performed according to CLSI methods except where otherwise noted (CLSI, 2011 and CLSI, 2009). The reference type strain E. coli ATCC 25922, the wild-type parent strain E. coli AG100, the hyper-permeable E. coli 901C and E. coli D22 and the E. coli AG100A strain lacking the acrAB efflux pump encoding genes were used to determine the ability of the PBP inhibitors to penetrate the outer membrane of gram-negative bacteria and inhibit bacterial growth. […] The P. aeruginosa PAO1, P. aeruginosa ATCC 27853 and A. baumannii ATCC 19606, along with the hyper-permeable P. aeruginosa ATCC 35151 and an engineered efflux pump-compromised strain of P. aeruginosa (ΔmexAB-oprM) were used to determine the ability of PBP inhibitors to penetrate the outer membrane of P. aeruginosa and A. baumannii and assess antibacterial activity against these important gram-negative organisms.
Briefly, cryo-preserved bacterial cultures of challenge strains are streaked for isolation on appropriate agar medium, in this case Mueller Hinton II agar. Following incubation to allow growth of the colonies, plates are sealed with parafilm and stored refrigerated for up to two weeks. For preparation of assay inoculum and to ensure low variability, at least 5 colonies are picked from the agar plates with an inoculating loop and aseptically transferred to a culture tube containing 3 mL of Mueller-Hinton Broth (supplemented with divalent cations to required levels based on Manufacturers' certification). The broth culture is grown for 3-5 hours at 37° C. with shaking at 200 rpm. Meanwhile, 2-fold serial dilutions of test compounds are conducted in a 96 well plate with a final volume of 75 μL per well at 2-fold the final desired concentration. After the dilution plates are set up the growing cultures are then diluted in a cuvette containing MH II broth and the optical density is measured at 600 nm. The Inoculum is diluted such that 75 μL of this culture in Mueller-Hinton Broth results in a starting bacterial concentration of 5×10^5 CFU/mL when added to the dilution plates. The plates are incubated for 16-20 hours at 37° C. The MIC values are read visually as the lowest concentration well with no bacterial growth.

A. baumannii ATCC 19606 = assay: Broth microdilution MIC, A. baumannii ATCC 19606; format: cell-based; settings: Acinetobacter baumannii
In short: as §1

[4] = ATCC25922, E. coli ATCC 25922, broth microdilution, read-out: MIC E. coli 25922
[5] = ATCC27853, P. aeruginosa ATCC 27853, broth microdilution, read-out: MIC P. aeruginosa ATCC 27853
[6] = ATCC19606, A. baumannii ATCC 19606, broth microdilution, read-out: MIC A. baumannii ATCC 19606

Chain of E. coli PBP3 (P0AD68 whole entry): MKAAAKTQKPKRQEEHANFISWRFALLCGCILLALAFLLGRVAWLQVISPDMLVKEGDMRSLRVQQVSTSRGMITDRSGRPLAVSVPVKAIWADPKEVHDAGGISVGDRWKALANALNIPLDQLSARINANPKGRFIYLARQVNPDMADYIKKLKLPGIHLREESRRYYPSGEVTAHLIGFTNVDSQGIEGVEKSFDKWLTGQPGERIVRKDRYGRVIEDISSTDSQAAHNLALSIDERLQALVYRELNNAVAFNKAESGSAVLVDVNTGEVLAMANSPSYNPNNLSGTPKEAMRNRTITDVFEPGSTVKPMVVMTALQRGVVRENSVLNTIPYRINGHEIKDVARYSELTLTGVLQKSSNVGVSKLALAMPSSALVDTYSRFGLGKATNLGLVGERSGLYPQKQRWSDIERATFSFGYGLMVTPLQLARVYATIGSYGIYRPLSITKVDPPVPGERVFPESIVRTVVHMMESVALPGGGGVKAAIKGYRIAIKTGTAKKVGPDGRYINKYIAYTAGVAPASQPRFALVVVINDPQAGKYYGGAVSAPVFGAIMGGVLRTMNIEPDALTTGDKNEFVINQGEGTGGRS

Row | SMILES | EC50 (E. coli PBP3) | MIC (E. coli AG100) | MIC (E. coli 901C) | MIC (E. coli AG100A) | MIC (E. coli D22) | MIC (K. pneumoniae SI-117) | MIC (K. pneumoniae UMM) | MIC [3] | MIC (P. aeruginosa ATCC 35151) | MIC (E. coli ATCC 25922; [4]) | MIC (P. aeruginosa ATCC 27853; [5]) | MIC (A. baumannii ATCC 19606; [6]) | further results
1 | CCN1CCN(C(=O)NC(C(=O)N[C@H]2Cc3cccc(C(=O)O)c3OB2O)c2ccc(OC)nc2)C(=O)C1=O (stereo partly drawn) [Example 34, (3R)-3-(2-(4-ethyl-2,3-dioxopiperazine-1-carboxamido)-2-(6-methoxypyridin-3-yl)acetamido)-2-hydroxy-3,4-dihydro-2H-benzo[e][1,2]oxaborinine-8-carboxylic acid] | 30 to 500 µM |  |  |  |  |  |  |  |  |  |  |  | EC50 (E. coli PBP2): > 500 µM; EC50 (E. coli PBP1a): < 10 µM; MIC [1]: 128 to 256 mg/L (≈ 237 to 475 µM); MIC [2]: 128 to 256 mg/L (≈ 237 to 475 µM)
2 | CCN1C[C@H](CCN)N(C(=O)NC(C(=O)N[C@H]2Cc3cccc(C(=O)O)c3OB2O)c2ncc(O)cc2F)C(=O)C1=O (stereo partly drawn) [Example 240, (3R)-3-(2-((S)-6-(2-aminoethyl)-4-ethyl-2,3-dioxopiperazine-1-carboxamido)-2-(3-fluoro-5-hydroxypyridin-2-yl)acetamido)-2-hydroxy-3,4-dihydro-2H-benzo[e][1,2]oxaborinine-8-carboxylic acid] |  | > 128 µg/mL | 8 to 16 µg/mL | 8 to 16 µg/mL | 8 to 16 µg/mL | > 128 µg/mL | > 128 µg/mL | > 128 µg/mL | 8 to 16 µg/mL |  |  |  | MIC (E. coli ATCC 25922; ATCC25922, read-out: MIC E. coli 25922): > 128 µg/mL; MIC (K. pneumoniae 848844): > 128 µg/mL; MIC (P. aeruginosa ATCC 27853; ATCC27853, read-out: MIC P. aeruginosa ATCC 27853): > 128 µg/mL; MIC (A. baumannii ATCC 19606; ATCC19606, read-out: MIC A. baumannii ATCC 19606): > 128 µg/mL
3 | CCN1CCN(C(=O)NC(C(=O)N[C@H]2Cc3cccc(C(=O)O)c3OB2O)c2ncc(C(N)=O)cc2F)C(=O)C1=O (stereo partly drawn) [Example 246, (3R)-3-(2-(5-carbamoyl-3-fluoropyridin-2-yl)-2-(4-ethyl-2,3-dioxopiperazine-1-carboxamido)acetamido)-2-hydroxy-3,4-dihydro-2H-benzo[e][1,2]oxaborinine-8-carboxylic acid] | 30 to 500 µM | > 128 µg/mL | 2 to 4 µg/mL | 32 to 64 µg/mL | 32 to 64 µg/mL | > 128 µg/mL | > 128 µg/mL | 32 to 64 µg/mL | 2 to 4 µg/mL | > 128 µg/mL | > 128 µg/mL | > 128 µg/mL | 
4 | CCN1CCN(C(=O)NC(C(=O)N[C@H]2Cc3cccc(C(=O)O)c3OB2O)c2ccc(O)c([N+](=O)[O-])c2)C(=O)C1=O (stereo partly drawn) [Example 247, (3R)-3-(2-(4-ethyl-2,3-dioxopiperazine-1-carboxamido)-2-(4-hydroxy-3-nitrophenyl)acetamido)-2-hydroxy-3,4-dihydro-2H-benzo[e][1,2]oxaborinine-8-carboxylic acid] |  | 32 to 64 µg/mL | < 0.25 µg/mL | 2 to 4 µg/mL | 2 to 4 µg/mL | > 128 µg/mL | > 128 µg/mL | 8 to 16 µg/mL | 0.5 to 1 µg/mL | 32 to 64 µg/mL | > 128 µg/mL | > 128 µg/mL | EC50 (E. coli PBP3; fluorescence polarization competition binding with Bocillin-FL, read-out: E. coli K12 PBP3 Potency): < 30 µM
